Assays:
Format in all cases: in vivo, mouse
[1] = test system: mice with liver fibrosis induced by carbon tetrachloride; experiment: Efficacy in mice with carbon tetrachloride-induced liver fibrosis; conditions: intragastric 1 mg/kg/day and 3 mg/kg/day for 3 weeks
Procedure: Experimental animals: 40 male C57 mice, 8 weeks old.
Modeling and administration: 400 μL of carbon tetrachloride (CCl4) was added to 3.6 mL of olive oil, mixed well, and then injected intraperitoneally at 0.1 mL/20 g, twice a week for six weeks. Six weeks later, 30 mice were divided into 3 groups, with 10 mice in each group. They were given physiological saline by gavage, 1 mg/kg A5 and 3 mg/kg A5. In addition, 10 mice that were not induced were given physiological saline as a control group. After 3 weeks of continuous administration, the mice were sacrificed, and the livers were removed, weighed, fixed and embedded, and the remaining liver tissue was cryopreserved for detection of hydroxyproline content.
Masson staining of mouse liver tissue: The mouse liver tissue was paraffin-embedded according to conventional methods, and sections were subjected to Masson staining. The specific procedures were as follows. […]
Detection of hydroxyproline content in mouse liver tissue: A hydroxyproline detection kit (Nanjing Jiancheng Bioengineering Institute) was used. […] Absorbance values of the supernatant at a wavelength of 550 nm were determined using a microplate reader. The hydroxyproline content per 100 mg of liver tissue was then calculated.

[2] = test system: mice with oxazolone-induced enteritis; experiment: Efficacy in mice with oxazolone-induced inflammatory bowel disease; conditions: intragastric 1 mg/kg/day
Procedure: Experimental animals: 30 male C57 mice, 8 weeks old.
Modeling and administration: 3% Oxazolone was dissolved in the solvent (acetone:olive oil, 1:4). After the mouse was anesthetized, the hair on the shoulder of the mouse was removed, and then 150 μL of Oxazolone with a mass fraction of 3% was added dropwise. On the 8th day after treatment, 1% Oxazolone was dissolved in a solvent (ethanol:sterilized water, 1:1). After the mice were anesthetized, 150 μL of 1% Oxazolone was administered rectally to create a model. The modeling mice were divided into two groups, with 10 mice in each group. One group was given compound A5 by gavage at 1 mg/kg/day, one group was given physiological saline, and the other group of 10 mice without modeling was used as a control group. Starting from the day of modeling, the weight of the mice was recorded every day. The feces of the mice were collected on the third day after rectal administration to observe the softness of the feces and whether there was bleeding. […]
Mouse enteritis disease activity index score: Mice were scored based on the degree of weight loss of the mouse (0: normal; 1:1-5%; 2:6-10%; 3:11-18%; 4: >18%), the degree of the softness of the feces (0: normal; 2: soft; 4: diarrhea), and the degree of feces bleeding (0: normal; 2: occult blood; 4: bloody stool), then each score was added and divide by three. […]

[3] = Oral pharmacokinetics of phosphate prodrug A5 in ICR mice (plasma and tissues); conditions: oral 30 mg/kg
Procedure: Compound A5 (30 mg/kg) was administered orally to overnight fasted ICR mice (male, n=3/time point). The mice were fed 2 hours after administration. Samples were collected before administration and 1 h, 2 h, 4 h, and 8 h after administration. Blood was collected in centrifuge tubes pretreated with heparin sodium and bis(4-nitrophenyl)phosphate (BNPP). After centrifugation at 11,000 rpm for 5 min at 4° C., plasma was obtained and stored at −80° C. Next, 100 […] of plasma sample, precipitated, vortexed for 1 min, and centrifuged (11,000 rpm) for 5 min. A mixture of 20 […] of methanol/acetonitrile (1:1, v/v) was taken to analyze the concentrations of compound A5 and compound A4-1a by LC-MS/MS. Heart (blood emptying), liver, and lung tissues were stored at −80° C. until analysis. After removal of contents, the duodenum and colon were quickly washed with cold saline containing BNPP and stored at −80° C. until analysis. […] 20 μL of the supernatant was redissolved in 20 μL of ACN/H2O (1:1, v/v), and the concentrations of compound A5 and compound A4-1a were analyzed by LC-MS/MS.

In the case of `COc1ccc(C[C@H]2COC(=O)[C@]2(C)Cc2ccc(OP(=O)(O)O)c(OC)c2)cc1OC` [Compound A5, 4-(((3R,4R)-4-(3,4-dimethoxybenzyl)-3-methyl-2-oxotetrahydrofuran-3-yl)methyl)-2-methoxyphenyl dihydrogen phosphate], the “hydroxyproline (HYP) content in liver tissue” value [1] is reported as “significantly reduce the increase in hydroxyproline content”, the “positive rate of Masson staining in liver (degree of liver fibrosis)” value [1] is reported as “significantly reduce the degree of liver fibrosis” and the colon pathology score [2] is reported as “significantly reduce the colon pathology score”. For the same compound, the “disease activity index of enteritis” value [2] was “significantly reduce the disease activity index” and the “drug concentration in plasma and various tissues” value [3] was “good drug concentration in plasma and various tissues”.

From US12692283B2, “Lignan derivative, preparation method therefor and use thereof” (SHANGHAI INSTITUTE OF MATERIA MEDICA, CHINESE ACADEMY OF …, priority 2021, dated 2026)
